The text below walks through data of publication PMC6977461 (Chemical Science, 2019).

*1 amine or outer side, *2 acyl side, *3 side chain or, on linkers, in order; H or OH if unused. The star is where a group is joined. X1 = C[C@@H](CN*)NC(=O)[C@@H](N)Cc1c[nH]cn1; CO = O=C([*:1])[*:2]

The test system of test [1] is INS-1 832/3 cells. Put plainly: insulin secretion in vitro in INS-1 832/3 cells. It is filed as cell-based. As to conditions: 16 h stimulation at 11 mM glucose, n = 5, versus non-ureido parents.
Test [2] addresses T1, mouse GLP-1 receptor (Mus musculus, UniProt O35659).
T1 construct: βTC6 cells which express GLP-1R endogenously; host or cells: βTC6 cells
T1 sequence (O35659 22-463): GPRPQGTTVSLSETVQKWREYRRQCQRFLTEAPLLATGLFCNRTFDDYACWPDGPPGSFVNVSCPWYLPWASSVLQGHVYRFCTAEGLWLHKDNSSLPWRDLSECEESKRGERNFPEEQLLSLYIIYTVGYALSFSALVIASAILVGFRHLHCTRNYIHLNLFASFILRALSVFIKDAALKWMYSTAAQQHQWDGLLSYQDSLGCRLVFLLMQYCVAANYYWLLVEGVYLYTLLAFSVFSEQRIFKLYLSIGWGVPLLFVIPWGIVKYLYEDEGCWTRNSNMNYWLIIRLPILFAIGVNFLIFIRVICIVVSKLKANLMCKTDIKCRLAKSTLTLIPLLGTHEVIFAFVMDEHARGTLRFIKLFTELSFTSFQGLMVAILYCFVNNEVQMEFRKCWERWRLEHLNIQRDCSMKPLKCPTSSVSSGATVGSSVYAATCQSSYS
As to the kind of experiment: cAMP production in βTC6 cells expressing GLP-1R endogenously (Method C2). Format: cell-based.
Procedure:  HEK-293T cells (Multispan inc., lot#.DC1267-062017) were suspended in cell culture media
(DMEM 1X + GlutaMAX (Gibco 31966-021)) complemented with FBS 10% (Sigma Aldrich
 βTC6 cells were suspended in HBSS buffer (Invitrogen) complemented with 20 mM HEPES (pH
In vitro pharmacology on HEK-293T cells (EC50: Method C1)
cells (Multispan inc., lot#.DC1267-062017) was determined by measuring their effects on cAMP
production using the HTRF detection method (performed by UREkA SARL). The cells were distributed
in 384-well microplates at a density of 1.0x10^4 cells/well. Stock solutions of the test compounds or the
reference agonist were prepared at a concentration of 1 mM in DMSO. Then, compounds to be tested
were diluted in cell culture media and transferred to the plate containing the cells to reach final assay

Test [3] relates to C57BL/6J mice. Put plainly: IPGTT in healthy mice 3, 6 or 9 h after i.v. dosing. It is filed as in vivo. As to conditions: 1 µg per mouse (10 nmol kg-1) i.v., glucose 2 g kg-1 i.p., fasted 9 h, n = 6, versus vehicle.
Text: Supérieur et de la Recherche) ethics committees (protocol number 05049-06). For the dose-response study, animal procedures were approved by British Home Office under the UK Animal (Scientific Procedures) Act 1986 (Project Licence 70/7596). Lean male C57Bl/6J mice (6-8 weeks of age, body […]
schedule, lights on at 07:00). Ad libitum access to water and normal chow (RM1, Special Diet Services) was provided unless otherwise stated. Mice were housed in groups of five. For the pharmacokinetics studies performed by TechMedILL service (PCBIS platform, CNRS UMS3286), mice were housed in polycarbonate cages (PCT2L12SHT, Allentown) enriched with play tunnels throughout the […]
environment (22 ± 1 °C) with a relative humidity (50 ± 10 %) and a normal 12 hours light cycle (at 8:00 pm lights off). A standard chow diet (A04, SAFE, France) and tap water were provided ad libitum. […]
After the acclimation period of 5 days, 20-25 g male C57Bl/6J mice 8 weeks old (Charles River laboratories) were randomized into groups (6 mice per group) according to their body weight. The mice were acutely treated with vehicle or 1 µg per mouse (10 nmol kg-1) of oligomers via i.v. injections (formulation: 4 µg mL-1 in PBS 1×) IPGTTs (glucose 2 g kg-1 i.p.) were performed after 3 or 6 hours of […]
(§1) Blood glucose was measured before the administration of […]
as §1

For test [4], the target named is GLP-1R (Homo sapiens, UniProt P43220). As to the kind of experiment: signal bias, cAMP vs β-arrestin-2, PathHunter CHO-GLP-1R cells (operational model). Format: cell-based. On the set-up: host or cells: PathHunter CHO-GLP-1R-βarr2 cells. As to conditions: relative to GLP-1-NH2 (2), n = 5. The procedure: signal measured at 665 nm by that measured at 620 nm (ratio). The results are expressed as a percent […]
Sequence of GLP-1R (P43220 24-463): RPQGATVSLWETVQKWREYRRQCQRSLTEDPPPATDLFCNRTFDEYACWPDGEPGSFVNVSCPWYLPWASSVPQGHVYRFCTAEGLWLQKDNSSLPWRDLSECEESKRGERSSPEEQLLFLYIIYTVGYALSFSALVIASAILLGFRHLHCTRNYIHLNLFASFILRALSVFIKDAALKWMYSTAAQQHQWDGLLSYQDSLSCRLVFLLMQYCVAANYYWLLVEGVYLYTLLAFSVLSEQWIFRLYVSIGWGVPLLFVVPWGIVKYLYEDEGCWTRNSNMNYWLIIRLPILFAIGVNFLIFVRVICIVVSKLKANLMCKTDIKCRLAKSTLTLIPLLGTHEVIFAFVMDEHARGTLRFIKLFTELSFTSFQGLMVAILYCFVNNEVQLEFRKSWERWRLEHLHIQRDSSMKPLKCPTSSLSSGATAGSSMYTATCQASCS
tested in each experiment at several concentrations to generate a concentration-response curve from which its EC50 value and SE are calculated using GraphPad Prism.
In vitro pharmacology on immortalised CHO-GLP-1R cells (EC50: Method C3) PathHunter CHO-GLP-1R cells were stimulated for 30 min at 37°C with indicated concentration of agonist in serum free medium without phosphodiesterase inhibitors. The reaction was terminated by addition of cAMP detection reagents (cAMP Dynamic 2, Cisbio) and read by HTRF.
β-arrestin-2 recruitment assay […]
agonist in serum free medium. The reaction was terminated by addition of PathHunter detection reagents (DiscoverX) and luminescent signal recorded.
Calculation of signal bias
Biased signalling was quantified using a modified form of the operational model.[6] LogR values were calculated for each ligand in each assay, and ∆LogR were determined by subtracting from the […]
Bias was then determined as ∆∆LogR by subtracting ∆LogR for […]

For orientation: EC50 means the concentration giving half of the maximal effect. With “{X1-CO}-EGTFTSDLSKQLEEEAVRLFIEWLKNGGPSSGAPPSKKKKKK-NH2 [compound 14]”, the “insulin release in vitro” value in test [1] is “significantly increased insulin release”. The “Potency (%), Table S1” value in test [2] (from EC50 in βTC6 cAMP assay, footnote: compare to GLP-1-NH2 (2)) turned out to be 118%. In addition, the EC50 in test [2] (read-out: EC50 (GLP-1R potency), Table S1) is 0.09 nM. Besides, the “blood glucose control, IPGTT 9 h after dosing” value in test [3] is reported as “strong ability to control blood glucose levels”. The “signal bias (cAMP vs β-arrestin-2)” value in test [4] was “strong preference for cAMP signalling”.
